Data: patent US20210315886A1, “IMIDAZOTETRAZINE COMPOUNDS” (The Board of Trustees of the University of Illinois, priority 2018, published 2021)
“Also recorded” adds a separate entry of the source. Where two headings read alike, the source gives them in different places.

Experiments:
[1] = tested on: panel of human GBM cell lines; assay: Anticancer activity against panel of human GBM cell lines; type: cell-based; details: for anticancer activity in cell culture: across all cell lines / in culture; for activity relative to TMZ in MGMT-deficient cell lines: MGMT-deficient U87 and D54 cell lines; for IC50: Homo sapiens
Method: Anticancer activity of C8 substituted imidazotetrazines. With a suite of imidazotetrazines in hand, each compound was evaluated against a panel of human GBM cell lines (Table 1a, Table 1b).

[2] = tested on: GBM Br23c oncospheres intracranially implanted; assay: Intracranial mouse model of GBM (Br23c oncospheres); type: in vivo; details: for increase of median survival over TMZ: equimolar to 15 mg/kg TMZ, once-per-day, 5×/week for 7 weeks
Source text: FIG. 5. Evaluation of imidazotetrazines in intracranial mouse models of GBM. GBM Br23c oncospheres were intracranially implanted into female athymic nude mice. Treatment was started 5 days post implantation. […] Compounds were formulated in 10% PEG in PBS immediately prior to each treatment. Number of mice per treatment cohort ≥5. Survival curves were compared using log-rank test.
in vivo Efficacy Models. Human GBM Br23c stem-like neurosphere cells were intracranially implanted in female athymic nude mice (150,000 cells/mouse). […] Mice were observed daily for any signs of deterioration, neurotoxicity, or movement disorders. They were inspected for signs of pain and distress, as in accordance with the Johns Hopkins Animal Care and Use Guidelines.

[3] = Mouse liver microsome stability assay; type: in vitro ADME; details: for stability to mouse liver microsomes: 2 hours
Method: Mouse Liver Microsome Stability Assay. A mixture of PBS (pH 7.4), NADPH regenerating system solution A (Corning Life Sciences), and NADPH regenerating system solution B (Corning Life Sciences) was incubated at 37° C. in a shaking incubator for 5 min. Next, compound was added in DMSO (final concentration 50 μM, 0.5% DMSO) before ice-cold mouse liver microsomes (Thermo Fisher, male CD-1 mice, pooled) were added (final protein concentration of 1 mg/mL). An aliquot was immediately removed, quenched with an equal volume of 100 μM internal standard and 0.5% hydrochloric acid in ice-cold acetonitrile, and centrifuged at 13,000 rcf for 3 min. The supernatant was diluted 1:5 in ddH2O and analyzed by LC-MS. The reactions were incubated at 37° C. in a shaking incubator for 2 h. A second aliquot was removed, quenched and diluted as before and analyzed by LC-MS. The ratio of the areas of analyte: internal standard at 2 hours was compared to the ratio at t0 to determine the percentage of compound remaining. Analysis was performed on an Agilent 6230 LC/MS TOF system with a 1.8 μm, 2.1×50 mm Agilent ZORBAX Eclipse Plus C18 column.

T98G cells = assay: Cytotoxicity in T98G cells with or without O6BG pre-treatment; type: cell-based, human
Method: FIG. 4. Imidazotetrazines were added to T98G cells with or without 3 h pre-treatment of O6BG (100 μM). IC50 values after 7-day incubation and fold changes between (+/−) O6BG treatments are reported. […] Error is SEM, n≥3. Statistical significance was determined by using a two-sample Student's t-test (two-tailed test, assuming equal variance).
After 8 hours of incubation with compound, the genomic DNA was isolated, quantified, and hydrolyzed to its constituent deoxyribonucleosides, which were quantitated via LC-MS/MS analysis. […] O6BG is a pseudosubstrate for MGMT that quenches cellular stores of the enzyme, leading to the persistence of O^6-methylguanine DNA adducts.

[4] = Hydrolytic stability in buffered saline (HPLC assay); type: physicochemical; details: aqueous solution, PBS at pH 7.4
Source text: Hydrolytic stability of C8 substituted imidazotetrazines.

[5] = Assessment of hematological toxicity; type: in vivo; details: mice, single IV dose 125 mg/kg, blood counts after 7 days
Method: Assessment of hematological toxicity. […] Both lymphocyte (FIG. 3b) and neutrophil (FIG. 8a) concentrations were decreased in TMZ-treated mice. […] Total WBC, lymphocyte, and neutrophil counts for mice treated with these compounds were equivalent to those of control mice.
Assessment of Hematological Toxicity. Male CD-1 IGS mice (n=4 mice/group) were administered a single dose of 125 mg/kg compound intravenously. Imidazotetrazines were formulated with SBEβCD in sterile water immediately prior to injection. Seven days post-treatment, mice were humanely sacrificed and whole blood was collected for assessment of total white blood cells, lymphocytes, neutrophils, platelets, and red blood cells.

U87 cells = assay: Cell viability, Alamar Blue, 7 days, U87; type: cell-based; details: Homo sapiens, U-87 MG, 168 h, Table 1a, MGMT −
Source text: Cell Culture and Reagents.

[6] = cited from earlier work

**Q.** For `CNC(=O)c1ncn2c(=O)n(C)nnc12` [Compound 4, N,3-dimethyl-4-oxo-3,4-dihydroimidazo[5,1-d][1,2,3,5]tetrazine-8-carboxamide], which “anticancer activity in cell culture” value [1] is on record?
**A.** retained activity in culture

**Q.** And the “increase of median survival over TMZ” value ([2]; oral)?
**A.** 24%

**Q.** What about the “stability to mouse liver microsomes” value [3] of the same compound?
**A.** some susceptibility to the effects of the microsomes

**Q.** What does the source list for `CN(C)C(=O)c1ncn2c(=O)n(C)nnc12` [Compound 5, N,N,3-trimethyl-4-oxo-3,4-dihydroimidazo[5,1-d][1,2,3,5]tetrazine-8-carboxamide]?
**A.** anticancer activity in cell culture [1]: retained activity in culture; increase of median survival over TMZ ([2]; oral): 46%; Fold Change between (+/−) O6BG IC50 (T98G cells): 10; stability to mouse liver microsomes [3]: some susceptibility to the effects of the microsomes

**Q.** With `CCCCN(CCCC)C(=O)c1ncn2c(=O)n(C)nnc12` [Compound 7, N,N-dibutyl-3-methyl-4-oxo-3,4-dihydroimidazo[5,1-d][1,2,3,5]tetrazine-8-carboxamide] as the compound, how does the “Stability (2 h, Microsomes)” value ([3]; 2 h, percentage remaining relative to t0) read?
**A.** 1 ± 1%

**Q.** What about the “stability to mouse liver microsomes” value [3] of the same compound?
**A.** markedly less stability in liver microsomes

**Q.** Which “activity relative to TMZ in MGMT-deficient cell lines” value (“activity relative to TMZ” for short) [1] does the source give for `CCSC(=O)c1ncn2c(=O)n(C)nnc12` [Compound 10, S-ethyl 3-methyl-4-oxo-3,4-dihydroimidazo[5,1-d][1,2,3,5]tetrazine-8-carbothioate] here?
**A.** activity comparable to TMZ

**Q.** Which half-life [4] does the source give for `Cc1ncn2c(=O)n(C)nnc12` [Compound 14, 3,8-dimethylimidazo[5,1-d][1,2,3,5]tetrazin-4(3H)-one] here?
**A.** > 20 h

**Q.** And the “activity relative to TMZ” value [1]?
**A.** as (or more) potent than TMZ

**Q.** What about the “anticancer activity in cell culture” value [1] of the same compound?
**A.** most active across all cell lines

**Q.** What about the “effect on survival in intracranial model” value ([2]; oral, 15 mg/kg TMZ or equimolar dose, 15 mg/kg) of the same compound?
**A.** lack of in vivo efficacy

**Q.** What does the source list for `CC(=O)c1ncn2c(=O)n(C)nnc12` [Compound 17, 8-acetyl-3-methylimidazo[5,1-d][1,2,3,5]tetrazin-4(3H)-one]?
**A.** activity relative to TMZ in MGMT-deficient cell lines [1]: effective against MGMT-deficient cell lines; anticancer activity in cell culture [1]: retained activity in culture; potency compared to TMZ ([1]; in culture, despite shorter aqueous half-life): equipotent to TMZ; extension of median survival past TMZ-treated mice ([2]; oral gavage, 14.9 mg/kg once-per-day for 5 total doses): more than 50 days; Fold Change between (+/−) O6BG IC50 (T98G cells): 8; myelosuppression / WBC toxicity ([5]; listed as K-TMZ, 125 mg/kg): did not produce myelosuppression; also recorded: significantly less in vivo toxicity to WBCs; IC50 (U87 cells): 44 ± 6 µM; stability to mouse liver microsomes [3]: generally stable to oxidative metabolism

**Q.** With `Cn1nnc2c(Cl)ncn2c1=O` [Compound 19, 8-chloro-3-methylimidazo[5,1-d][1,2,3,5]tetrazin-4(3H)-one] as the compound, how does the “activity relative to TMZ” value [1] read?
**A.** as (or more) potent than TMZ

**Q.** What about the “anticancer activity in cell culture” value [1] of the same compound?
**A.** retained activity in culture

**Q.** And the “stability to mouse liver microsomes” value [3]?
**A.** generally stable to oxidative metabolism

**Q.** Which half-life [4] does the source give for `Cn1nnc2c(-c3ccccc3)ncn2c1=O` [Compound 23, 3-methyl-8-phenylimidazo[5,1-d][1,2,3,5]tetrazin-4(3H)-one] here?
**A.** > 20 h

**Q.** And the “activity relative to TMZ” value [1]?
**A.** as (or more) potent than TMZ

**Q.** And the “anticancer activity in cell culture” value [1]?
**A.** most active across all cell lines

**Q.** Which results are given for `Cc1cnc(-c2ncn3c(=O)n(C)nnc23)o1` [Compound 27, 3-methyl-8-(5-methyloxazol-2-yl)imidazo[5,1-d][1,2,3,5]tetrazin-4(3H)-one]?
**A.** activity relative to TMZ in MGMT-deficient cell lines [1]: as (or more) potent than TMZ; anticancer activity in cell culture [1]: retained activity in culture; Fold Change between (+/−) O6BG IC50 (T98G cells): 20

**Q.** For `Cn1nnc2c(C(N)=O)ncn2c1=O` [TMZ, temozolomide, reference compound], which IC50 ([1]; GBM cell lines with negligible MGMT expression, read-out: IC50 in cell lines with negligible MGMT expression) is on record?
**A.** ≤ 50 µM

**Q.** And the IC50 ([1]; GBM cell lines with significant MGMT expression, read-out: IC50 in cell lines with significant MGMT expression)?
**A.** > 300 µM

**Q.** And the “myelosuppression / WBC toxicity” value [5]?
**A.** white blood cell (WBC) depletion

**Q.** What about the “stability to mouse liver microsomes” value [3] of the same compound?
**A.** insensitive to metabolic perturbation

**Q.** What about the incidence of myelotoxicity ([6]; TMZ-treated patients) of the same compound?
**A.** ~20%

**Q.** And the half-life ([6]; in vivo, in humans (b7: also in aqueous solutions in vitro))?
**A.** ~2 h
